Data: patent publication US6908944B2, “Use of 6-dimethylaminomethyl-1-phenyl-cyclohexane compounds for treatment of urinary incontinence” (Gruenenthal GmbH, priority 2000, dated 2005)

Each compound was assayed on spontaneous contractions of the bladder (assay: Cystometry on anaesthetized naive rats (suppression of rhythmic spontaneous bladder contractions)). Conditions: anaesthetized ventilated naive female rats; i.v., cumulative administration; mean of 3 experiments.
Type: in vivo, rat
Method: The cystometric investigation of naive female rats was carried out by the method of Kimura et al. (Kimura et al., 1996, Int. J. Urol. 3:218-227). The abdomen of anaesthetized ventilated rats is opened up and the ureter is tied off. The urine is drained from the kidneys. A catheter is inserted into the bladder and fixed. […] After stable starting values are reached, the test substance is administered i.v. in a cumulative manner. An influence on bladder function manifests itself via suppression of spontaneous contractions. The absence of contractions over a period of 10 min is the parameter for the suppression.
A suppression of spontaneous contractions in rats was measurable with all the substances tested.

Compound	Lowest dose (mean of the lowest dose at which for the first time contractions are absent over a period of 10 min)
COc1cccc(C2(O)CCCCC2CN(C)C)c1 (racemic) [Compound 23, rac-Tramadol, reference compound]	5.3 (n = 3) mg/kg
CN(C)C[C@H]1CCCC[C@]1(F)c1cccc(O)c1.Cl [Compound 18, (+)-(1R,2R)-3-(2-Dimethylaminomethyl-1-fluoro-cyclohexyl)-phenol, hydrochloride]	0.2 (n = 3) mg/kg
CN(C)C[C@H]1CCCC[C@@H]1c1cccc(O)c1.Cl [Compound 19, (+)-(1S,2S)-3-(2-Dimethylaminomethyl-cyclohexyl)-phenol, hydrochloride]	0.1 (n = 3) mg/kg
CN(C)C[C@@H]1CCCC[C@H]1c1cccc(O)c1.Cl [Compound 20, (−)-(1R,2R)-3-(2-Dimethylaminomethyl-cyclohexyl)-phenol, hydrochloride]	0.5 (n = 3) mg/kg
